Data from US20100028872A1, “Methods for the Detection of Cancer” (priority 2006, published 2010).

Experiments:
[1] = system: SW48 colorectal tumor cell line; experiment: 5Aza-dC dose optimisation: re-expression of silenced tumor suppressor genes on the expression array; type: cell-based; details: 5 μM 5Aza-dC for at least two cell doubling times, with TSA (500 nM)
Text: To determine the optimal 5Aza-dC dosage for robust detection of transcriptional reactivation on the microarray without excessive toxicity to the treated cells, the re-expression of 5 tumor suppressor genes, p16^INK4a, MLH1, MGMT, RARβ, and Timp-3, was examined at different doses of 5Aza-dC. The five TSG are well characterized as hypermethylated with associated silencing in the SW48 colorectal tumor cell line, which has a similar cell doubling time to the RCC lines (Wheeler et al. (1999) Proc. Natl. Acad. Sci., 96:10296-301; Esteller et al. (1999) Cancer Res., 59:793-97; Paz et al. (2003) Cancer Res., 63:1114-21; Herman et al. (1995) Cancer Res., 55:4525-30; Bachman et al. (1999) Cancer Res., 59:798-802). RNA was extracted from SW48 cell cultures after treatment with 1, 5, or 10 μM 5Aza-dC and TSA (500 nM). RT-PCR was then performed and the product labeled and hybridized to the expression array. […] The 5Aza-dC treatment was combined with TSA because there is good evidence that the processes of methylation and deacetylation interact to silence transcription, although TSA may have less synergistic effect at the relatively higher 5 μM 5Aza-dC dose employed than when combined with lower doses of 5Aza-dC (Cameron et al. (1999) Nat. Genet., 21:103-7; Wade et al. (2001) Oncogene, 20:3166-73). […]

[2] = system: 786-0 clear cell renal tumor line; experiment: Expression microarray of genes upregulated after 5Aza-dC and TSA treatment; type: cell-based, human; details: 5 μM 5Aza-dC and 500 nM TSA, 14,802 gene microarray
Description: (§1) 5Aza-dC (Sigma, St. Louis, Mo.) was dissolved in phosphate buffered saline (PBS) as a 5 mM stock solution, and stored in aliquots at −80° C. TSA (Wako, Richmond, Va.) was dissolved in absolute ethanol as a 330 μM stock solution, and stored at −20° C. The 4 renal cell lines were split to low density and exposed to 5Aza-dC at a final concentration of 5 μM, again 24 hours after the beginning of treatment and, if necessary, further treatment until the cells had undergone at least 2 doublings. The cells were also treated with TSA at a final concentration of 500 nM during the 24 hours prior to harvest for RNA extraction. Untreated (mock) cells were cultured over an identical period of time with an equivalent volume of PBS and, for the final 24 hours, with an equivalent volume of EtOH.
(§2) Total RNA was isolated from drug-treated and untreated cultured cells using TRIZOL reagent (Invitrogen, Carlsbad, Calif.) and purified with the RNAeasy Mini Kit (Quiagen, Valencia, Calif.) combined with DNAase treatment. The RNA quality was confirmed by the ratio of 28S and 18S ribosomal RNA after agarose gel electrophoresis. Twenty μg of total RNA was reverse transcribed using oligo (dT)24 primer and Superscript II reverse transcriptase (Invitrogen, Carlsbad, Calif.) for 1.5 hours at 42° C.
(§3) For each cell line, both treated and untreated cDNA was labeled with Cy3 or Cy5 (Amersham Biosciences, Piscataway, N.J.) and then hybridized to separate human 15k oligoarrays (MWG-Biotech Inc, High Point, N.C.) according to the manufacturer's recommendation for 18 hours at 42° C. The microarrays were processed and spotted in the DNA Microarray Facility at FCCC. The Gene list, Gene ID and Template files can be viewed at research.fccc.edu/facilities/microarray. In addition, microarray hybridization was performed with the opposite labels (dye flip) from each cell line. The hybridized slides were scanned using a GMS 428 Scanner (Affymetrix, Santa Clara, Calif.) to generate high-resolution images for both Cy3 and Cy5 channels. Image analysis was performed using the ImaGene software (BioDiscovery, Inc, El Segundo, Calif.).
(§4) The genes corresponding to each oligonucleotide spotted on the array were identified using an optimized segmentation algorithm. […] Data were analyzed using the GeneSight software (BioDiscovery, Inc, El Segundo, Calif.) which includes background subtraction, data normalization (Lowess transformation), calculation of ratios, and statistical analysis of replicate spots and slides.
(§5) Up-regulation of the 14,802 gene microarray was analyzed in 4 RCC lines treated with 5 μM of 5Aza-dC and 500 nM of TSA. […] The promoter region of each gene was also analyzed for the presence of a CpG island with the characteristics described by Takai and Jones (Takai et al. (2002) Proc. Natl. Acad. Sci., 99:3740-5). […]

[3] = system: ACHN papillary renal tumor cell line; experiment: as above; type: cell-based, human; details: 5 μM 5Aza-dC and 500 nM TSA, 14,802 gene microarray
Description: as §1, §2, §3, §4, §5

[4] = system: HRC51 clear cell renal tumor cell line; experiment: as above; type: cell-based, human; details: 5 μM 5Aza-dC and 500 nM TSA, 14,802 gene microarray
Description: as §1, §2, §3, §4, §5

[5] = system: HRC59 papillary renal tumor cell line; experiment: as above; type: cell-based, human; details: 5 μM 5Aza-dC and 500 nM TSA, 14,802 gene microarray
Description: as §1, §2, §3, §4, §5

Nc1ncn([C@H]2C[C@H](O)[C@@H](CO)O2)c(=O)n1 [5Aza-dC, 5Aza-2deoxycytidine]
toxicity as assessed by comparison of cell morphology and cell death between control and treated cells [1]: minimal toxicity | re-expression of 5 tumor suppressor genes (p16INK4a, MLH1, MGMT, RARβ, Timp-3) ([1]; SW48 cells): re-expression of the 5 TSG | genes upregulated at least 3-fold compared to the untreated cells [2]: 170 genes | genes upregulated at least 3-fold compared to the untreated cells [3]: 111 genes | genes upregulated at least 3-fold compared to the untreated cells [4]: 112 genes | genes upregulated at least 3-fold compared to the untreated cells [5]: 178 genes
